Patent US11155523B2, “Biphenyl compound as CCR2/CCR5 receptor antagonist” (Medshine Discovery Inc., priority 2016, dated 2021)

Key:
CCR2 = target: T1, CCR2 (Homo sapiens, UniProt P41597); test: CCR2 in vitro test: intracellular calcium signal detected by FLIPR; type: cell-based; conditions: HEK293 cells expressing CCR2, agonist MCP-1 at EC80, calcium signal
T1 construct: expressed in transfected cells; host or cells: HEK293, clone C7, passage P6
Experimental: (§1) Experimental Example 1: CCR2/CCR5 In Vitro Test
(§2) The intracellular calcium signal was detected by FLIPR, and the IC50 value of the compound was used as an index to evaluate the inhibitory effect of the compound on CCR2 and CCR5 receptors.
(§3) 1. Cell line: The cells were inoculated and incubated in a 5% CO2 incubator at 37° C. overnight.
(§4) CCR2/CCR5 density: 1 M (20 k/well)
(§5) 2. Reagents: Fluo-4 Direct, (Invitrogen, Cat #F10471)
(§6) The compound was dissolved in DMSO to prepare a 10 mM solution, and the compound solution was placed in a nitrogen box.
(§7) Agonist reference compounds:
(§8) Preparation of probenecid in FLIPR assay buffer: 1 mL of FLIPR assay buffer was added to […] of probenecid to prepare a 250 mM solution, which is prepared fresh daily.
(§9) 2× (8 μM) Fluo-4 Direct™ Loading Buffer (per 10 mL) • Thaw a bottle of Fluo-4 Direct™ crystal (F10471). • Add 10 mL of FLIPR assay buffer to the vial. • Add 0.2 mL of probenecid to each 10 mL of Fluo-Direct. The final concentration of the assay was 2.5 mM. • Rotate it and place for >5 minutes (in absence of light). • Prepare fresh daily.
(§10) MCP-1 was diluted in FLIPR assay buffer 1:2 into 10 points, starting at 0.5 uM (final 100 nM). RANTES was diluted in FLIPR assay buffer 1:3 into 10 points, starting at 0.5 uM (final 100 nM). 20 uL of serially diluted compound buffer was added to each well of the DRC plate according to the compound plate map.
(§11) Standard compound was diluted in DMSO 1:3 into 11 points, starting at 1 mM. Test compound was diluted in DMSO 1:3 into 11 points, starting at 2 mM. 250 nL of compound solution was transferred into a cell plate using Echo (Greiner #781946).
(§12) (c) Take the cell plate out of the incubator, and gently dispense 20 uL of 2× Fluo-4 Direct wash-free loading buffer into a 384-well cell culture plate using a pipette. The final cell plate is 40 μL in volume.
(§13) (d) Incubate for 50 minutes at 37° C. under 5% CO2, and for 10 minutes at room temperature.
(§14) (e) Take the cell plate out of the incubator, and place it in FLIPR. Place the composite plate and the tip box in FLIPR.
(§15) (f) For DRC plate: • 1) Run the program on FLIPRTETRA. • 2) Read the fluorescent signal. • 3) Transfer 10 μL of compound from the DRC plate to the cell plate. • 4) Read the fluorescent signal. • 5) Calculate the “maximum−minimum” from Read 90 to the maximum allowed. Use FLIPR to calculate the EC80 value of each cell line. • 6) Prepare 5×EC80 concentration of the agonist reference compound.
(§16) (g) For the composite plate (1-add): • 1) Run the program on FLIPRTETRA. • 2) Transfer 10 μl, of 5×EC80 concentration of the agonist reference compound from the composite plate to the cell plate. • 3) Read the fluorescent signal. • 4) Calculate the “maximum−minimum” from Read 90 to the maximum allowed.
(§17) (h) Analyze the data using Prism, and calculate the IC50 value of the compound.

CCR5 = target: T2, CCR5 (Homo sapiens, UniProt P51681); test: CCR5 in vitro test: intracellular calcium signal detected by FLIPR; type: cell-based; conditions: HEK293 cells expressing CCR5, agonist RANTES at EC80, calcium signal
T2 construct: expressed in transfected cells; host or cells: HEK293, clone C13, passage P4
Experimental: as §1, §2, §3, §4, §5, §6, §7, §8, §9, §10, §11, §12, §13, §14, §15, §16, §17

T2 sequence (P51681 whole entry, species assumed): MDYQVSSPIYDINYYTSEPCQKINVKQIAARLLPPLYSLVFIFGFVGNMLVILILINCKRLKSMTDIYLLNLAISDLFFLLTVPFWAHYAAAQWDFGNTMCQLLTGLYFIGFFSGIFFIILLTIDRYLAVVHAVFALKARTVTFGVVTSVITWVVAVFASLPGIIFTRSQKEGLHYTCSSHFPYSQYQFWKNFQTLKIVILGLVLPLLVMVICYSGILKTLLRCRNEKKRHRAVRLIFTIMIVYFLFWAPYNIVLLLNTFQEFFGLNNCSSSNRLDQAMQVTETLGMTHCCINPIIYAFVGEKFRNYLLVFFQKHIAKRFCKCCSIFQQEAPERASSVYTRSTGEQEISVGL
T1 sequence (P41597 whole entry, species assumed): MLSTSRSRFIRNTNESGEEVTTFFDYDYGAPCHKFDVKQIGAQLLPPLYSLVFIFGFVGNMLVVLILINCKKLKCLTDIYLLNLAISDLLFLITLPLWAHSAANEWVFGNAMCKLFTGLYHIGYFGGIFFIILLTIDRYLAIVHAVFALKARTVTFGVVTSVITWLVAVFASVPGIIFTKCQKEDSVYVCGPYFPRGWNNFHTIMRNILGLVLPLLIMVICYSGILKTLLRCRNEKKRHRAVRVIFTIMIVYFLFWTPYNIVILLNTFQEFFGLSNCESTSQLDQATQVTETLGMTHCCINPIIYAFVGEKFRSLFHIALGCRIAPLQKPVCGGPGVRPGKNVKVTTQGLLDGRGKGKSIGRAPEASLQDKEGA

SMILES	IC50 (CCR2) [nM]	IC50 (CCR5) [nM]
CCCCOCCOc1ccc(-c2ccc(F)c(/C=C/C(=O)Nc3ccc([S@@+]([O-])Cc4cncn4CCC)cc3)c2)cc1 [WX003]	21.6	3
CCCCOCCOc1ccc(-c2ccc(CC)c(/C=C/C(=O)Nc3ccc([S@@+]([O-])Cc4cncn4CCC)cc3)c2)cc1 [WX005]	12.1	3.4
CCCCOCCOc1ccc(-c2ccc(C(C)C)c(/C=C/C(=O)Nc3ccc([S@@+]([O-])Cc4cncn4CCC)cc3)c2)cc1 [WX006]	32.1	3.3
CCCCOCCOc1ccc(-c2cccc(/C=C/C(=O)Nc3ccc([S@@+]([O-])Cc4nncn4CCC)cc3)c2)cc1 [WX010]	214	17.2
CCCCOCCOc1ccc(-c2ccc(F)c(/C(C)=C/C(=O)Nc3ccc([S@@+]([O-])Cc4cncn4CCC)cc3)c2)cc1 [WX014]	258	7.9
CCCOc1ccc(-c2cccc(/C=C(\C)C(=O)Nc3ccc([S+]([O-])Cc4nncn4CCC)cc3)c2)cc1 (centres unmarked) [WX015]	62	65.1
CCCCOc1ccc(-c2ccc(Cl)c(/C=C/C(=O)Nc3ccc([S+]([O-])Cc4cncn4CC4CC4)cc3)c2)cc1 (centres unmarked) [WX021]	64.5	8.8
CCCCOc1ccc(-c2ccc(OCCCF)c(/C=C/C(=O)Nc3ccc([S@@+]([O-])Cc4cncn4CCC)cc3)c2)cc1 [WX024]	63.1	1.3
CCCCOc1ccc(-c2ccc(Cl)c(/C=C/C(=O)Nc3ccc([S+]([O-])Cc4cncn4CC(C)C)cc3)c2)cc1 (centres unmarked) [WX030]	300	15.9
CCCCOCCOc1ccc(-c2cccc(/C=C/C(=O)Nc3ccc(S(=O)(=O)Cc4cncn4CCC)cc3)c2)cc1 [WX031]	237	95.9
CCCCOCCOc1ccc(-c2ccc(OCC)c(/C=C/C(=O)Nc3ccc([S@@+]([O-])Cc4cncn4CCC)cc3)c2)cc1 [WX032]	28.6	8.1
CCCCOCCOc1ccc(-c2ccc(OC(C)C)c(/C=C/C(=O)Nc3ccc([S@@+]([O-])Cc4cncn4CCC)cc3)c2)cc1 [WX033]	56.3	11.8
CCCCOCCOc1ccc(-c2ccc(OCC(C)C)c(/C=C/C(=O)Nc3ccc([S@@+]([O-])Cc4cncn4CCC)cc3)c2)cc1 [WX034]	30	10
CCCCOCCOc1ccc(-c2cc(/C=C/C(=O)Nc3ccc([S@@+]([O-])Cc4cncn4CCC)cc3)c(OC)c(OC)c2)cc1 [WX035]	215	16.1
CCCCOCCOc1ccc(-c2ccc(OC)c(/C=C/C(=O)Nc3ccc([S@@+]([O-])Cc4cncn4CCC)cc3)c2)c(C)c1 [WX036]	64.9	13.3
CCCCOCCOc1ccc(-c2ccc(OC)c(/C=C/C(=O)Nc3ccc([S+]([O-])Cc4c(C)ncn4CCC)cc3)c2)cc1 (centres unmarked) [WX038]	42.5	12.5
CCCCOCCOc1ccc(-c2ccc(OC)c(/C=C/C(=O)Nc3ccc([S@+]([O-])Cc4cncn4CC)cc3)c2)cc1 [WX039]	70.1	760
CCCCOCCOc1ccc(-c2ccc(OC)c(/C=C/C(=O)Nc3ccc([S@@+]([O-])Cc4cncn4CC)cc3)c2)cc1 [WX040]	11.3	10.5
CCCCOCCOc1ccc(-c2ccc(C)c(/C=C/C(=O)Nc3ccc([S+]([O-])Cc4cncn4CC)cc3)c2)cc1 (centres unmarked) [WX041]	22.5	21.4
CCCCOCCOc1ccc(-c2cc(C)c(OC)c(/C=C/C(=O)Nc3ccc([S@@+]([O-])Cc4cncn4CCC)cc3)c2)cc1 [WX042]	52.8	4
CCCCOCCOc1ccc(-c2cc(/C=C/C(=O)Nc3ccc([S@@+]([O-])Cc4cncn4CCC)cc3)c(OC)cc2Cl)cc1 [WX043]	250	9.1
CCCCOCCOc1ccc(-c2ccc(C#N)c(/C=C/C(=O)Nc3ccc([S@@+]([O-])Cc4cncn4CCC)cc3)c2)cc1 [WX044]	293	16.1
CCCCOCCOc1ccc(-c2ccc(OC)c(/C=C/C(=O)Nc3ccc([S+]([O-])Cc4c(C)ncn4CC)cc3)c2)cc1 (centres unmarked) [WX045]	77.6	14.8
CCCCOCCOc1ccc(-c2cc(F)c(OCC)c(/C=C/C(=O)Nc3ccc([S@+]([O-])Cc4c(C)ncn4CC)cc3)c2)cc1 [WX089]	15	

Results, then the compound that gave them:

IC50 (CCR2) [nM]	IC50 (CCR5) [nM]	SMILES
29.9	9.3	CCCCOCCOc1ccc(-c2cccc(/C=C/C(=O)Nc3ccc([S@@+]([O-])Cc4cncn4CCC)cc3)c2)cc1 [WX001]
319	113	CCCn1cncc1C[S@+]([O-])c1ccc(NC(=O)/C=C/c2cccc(-c3ccc(OC)cc3)c2)cc1 [WX002]
153	7.1	CCCn1cncc1C[S@+]([O-])c1ccc(NC(=O)/C=C/c2cccc(-c3ccc(OCC)cc3)c2)cc1 [WX004]
65.2	6.4	CCCn1cncc1C[S@+]([O-])c1ccc(NC(=O)/C=C/c2cccc(-c3ccc(OC(C)C)cc3)c2)cc1 [WX007]
17.3	1.5	CCCCOCCOc1ccc(-c2cccc(/C=C(\C)C(=O)Nc3ccc([S@@+]([O-])Cc4cncn4CCC)cc3)c2)cc1 [WX008]
63.2	9.4	CCCCOc1ccc(-c2cccc(/C=C/C(=O)Nc3ccc([S@@+]([O-])Cc4cncn4CCC)cc3)c2)cc1 [WX009]
61	2.6	CCCCOCCOc1ccc(-c2ccc(C)c(/C=C/C(=O)Nc3ccc([S@@+]([O-])Cc4cncn4CCC)cc3)c2)cc1 [WX011]
51	5.4	CCCCOCCOc1ccc(-c2cccc(/C(C)=C/C(=O)Nc3ccc([S@@+]([O-])Cc4cncn4CCC)cc3)c2)cc1 [WX012]
984	14.2	CCCn1cncc1C[S@+]([O-])c1ccc(NC(=O)/C=C/c2cccc(-c3ccc(OCCOC)cc3)c2)cc1 [WX013]
75.1	4.5	CCCCOCCOc1ccc(-c2ccc(Cl)c(/C=C/C(=O)Nc3ccc([S@@+]([O-])Cc4cncn4CCC)cc3)c2)cc1 [WX016]
43.5	7.3	CCCCOc1ccc(-c2ccc(OC(F)F)c(/C=C/C(=O)Nc3ccc([S@@+]([O-])Cc4cncn4CCC)cc3)c2)cc1 [WX018]
9.3	50.9	CCCCOCCOc1ccc(-c2cccc(/C=C/C(=O)Nc3ccc([S+]([O-])Cc4cncn4CC)cc3)c2)cc1 (centres unmarked) [WX019]
68.1	8.2	CCCCOc1ccc(-c2ccc(Cl)c(/C=C/C(=O)Nc3ccc([S+]([O-])Cc4cncn4CC)cc3)c2)cc1 (centres unmarked) [WX020]
205	10.1	CCCn1cncc1C[S@+]([O-])c1ccc(NC(=O)/C=C/c2cc(-c3ccc(OCCCF)cc3)ccc2Cl)cc1 [WX022]
37.1	53.3	CCCCOCCOc1ccc(-c2cccc(/C=C/C(=O)Nc3ccc([S+]([O-])Cc4cncn4CC4CC4)cc3)c2)cc1 (centres unmarked) [WX023]
127	7.4	CCCCOc1ccc(-c2ccc(Cl)c(/C=C/C(=O)Nc3ccc([S@@+]([O-])Cc4cncn4CCC)cc3)c2)cc1 [WX025]
175	3.2	CCCCOc1ccc(-c2ccc(OCC(F)F)c(/C=C/C(=O)Nc3ccc([S@@+]([O-])Cc4cncn4CCC)cc3)c2)cc1 [WX026]
207	13.6	CCCCOc1ccc(-c2ccc(Cl)c(/C=C/C(=O)Nc3ccc([S+]([O-])Cc4cncn4CCCC)cc3)c2)cc1 (centres unmarked) [WX027]
86.4	15.5	CCCCOCCOc1ccc(-c2cccc(/C=C/C(=O)Nc3ccc([S+]([O-])Cc4cncn4CCCC)cc3)c2)cc1 (centres unmarked) [WX028]
167	34.2	CCCCOCCOc1ccc(-c2cccc(/C=C/C(=O)Nc3ccc([S+]([O-])Cc4cncn4CC(C)C)cc3)c2)cc1 (centres unmarked) [WX029]
62.2	44.2	CCCn1cncc1C[S@+]([O-])c1ccc(NC(=O)/C=C/c2cccc(-c3ccc(N4CCCC4)cc3)c2)cc1 [WX037]
